Test results: ChEMBL document CHEMBL1157862, “Synthesis and pharmacological evaluation of novel fused thiophene derivatives as 5-HT2A receptor antagonists: molecular modeling study” (Eur J Med Chem, 2010)

Target: 5-hydroxytryptamine receptor 2A (Rattus norvegicus) (UniProt P14842)
Assay: Antagonist activity at 5HT2A receptor in Sprague-Dawley rat assessed as inhibition of 5HT-induced pulmonary arterial pressure at 100 uM relative to 5HT
Type: functional

Sequence of 5-hydroxytryptamine receptor 2A (Rattus norvegicus) (P14842 whole entry): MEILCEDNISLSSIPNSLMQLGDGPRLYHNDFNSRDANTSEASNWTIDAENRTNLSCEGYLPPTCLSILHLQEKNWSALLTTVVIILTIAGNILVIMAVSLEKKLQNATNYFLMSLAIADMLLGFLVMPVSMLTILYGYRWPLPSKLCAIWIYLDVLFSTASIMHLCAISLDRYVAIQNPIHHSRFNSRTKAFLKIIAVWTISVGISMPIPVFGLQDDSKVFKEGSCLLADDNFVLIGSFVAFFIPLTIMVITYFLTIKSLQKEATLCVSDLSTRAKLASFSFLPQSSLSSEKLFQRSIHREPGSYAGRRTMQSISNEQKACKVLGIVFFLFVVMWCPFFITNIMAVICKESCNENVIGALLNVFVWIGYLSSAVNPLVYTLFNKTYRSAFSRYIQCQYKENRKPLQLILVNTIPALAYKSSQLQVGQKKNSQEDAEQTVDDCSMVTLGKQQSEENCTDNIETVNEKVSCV

SMILES	inhibition
CCOC(=O)c1c(NC(=O)CN2CCN(c3ccccc3)CC2)sc2c1CCN(C)C2	62%
O=c1[nH]c2sc3c(c2c(=O)n1CCN1CCN(c2ccccc2)CC1)CCC3	86%
CN1CCc2c(sc3[nH]c(=O)n(CCN4CCN(c5ccccc5)CC4)c(=O)c23)C1	60%
CN1CCc2c(sc3[nH]c(=O)n(CCN4CCN(c5ccc(F)cc5)CC4)c(=O)c23)C1	63%
COc1ccccc1N1CCN(CCn2c(=O)[nH]c3sc4c(c3c2=O)CCN(C)C4)CC1	65%

Further lines, results first:

inhibition	SMILES
88%	CCOC(=O)c1c(NC(=O)CN2CCN(c3ccccc3OC)CC2)sc2c1CCN(C)C2
65%	CCOC(=O)c1c(NC(=O)CN2CCN(c3ccccc3OCC)CC2)sc2c1CCN(C)C2
